Experimental findings from US7737126B2, “Purine derivative” (Glaxo Group Limited, priority 2004, dated 2010) are described below.

The subject of one series is plasma protein. Briefly: Literature % plasma protein binding of calibration compounds. The conditions noted are these: linear conversion of literature % PPB.
The target of a further series is T1, HSA (Homo sapiens, UniProt P02768).
T1 construct: purchased Chromtech (Cheshire, UK)
Briefly: HSA binding by immobilised HSA HPLC column. Particulars: for logK measured / % HSA measured: HSA column, typical data; for logK measured: derived from the calibration curve. The class given is in vitro ADME. The protocol: Instrument: Agilent HP1100 HPLC instruments were used throughout.
HPLC columns: Chromtech Immobilised HSA HPLC column 50×3 mm was purchased from Chromtech (Cheshire, UK).
Mobile phase and detection: The mobile phase A was 50 mM pH 7.4 ammonium acetate solution, while mobile phase B was 2-Propanol (HPLC grade, Runcorn, UK). The mobile phase flow rate was 1.8 ml/min. The column temperature was kept at 30° C. The gradient profile and run time were the same with each column, the linear gradient from 0 to 30% 2-propanol was applied from 0 to 3 minutes. From 3 to 10 minutes, the mobile phase composition was constant 30% 2-propanol and 70% 50-mM ammonium acetate. […] Each separation was stopped after 15 minutes.
Detection: Chromatograms were recorded at 230 and 254 nm by a diode array UV absorption detector at room temperature.

A further series concerns neutrophil accumulation. As to the kind of experiment: In vivo anti-inflammatory LPS model. Also noted: species or system rat. Particulars: male CD albino rats, intratracheal, dose of 30 μg/kg or less, lung lavage 4 h after LPS challenge. How it is done: In Vivo Anti-Inflammatory Agonist Activity LPS Model: Test compound was administered to male CD albino rats prior to exposure to LPS. Compound (or vehicle) was injected in a 200 ul volume into the trachea , via a cannula placed trans-orally, whilst the animals were under isoflurane anaesthesia. After a recovery period of 30 min, rats were placed in a chamber and exposed to an aerosol of E. Coli-derived LPS for 15 min. Four hours after LPS challenge the rats were killed, the lungs lavaged, and both total and differential cell counts determined.

A short description of series [1]: Cardiovascular model (therapeutic index). The class given is in vivo, rat. Particulars: anaesthetised male Wistar rats, administered into the trachea. How it is done:
3) Therapeutic Index (TI) Cardiovascular Model: Male Wistar rats were anaesthetised with chloralose/pentobarbitone and the jugular vein, left carotid artery and trachea were cannulated. The arterial cannula was connected to a transducer for the continuous measurement of blood pressure and heart rate. Compound (or vehicle) was administered into the trachea in a 100 ul volume, and the dose of test compound giving a 20% increase in blood pressure and heart rate (ED20) was determined. The TI for a test compound is calculated as the ratio of the ED20 in the cardiovascular model compared with the ED50 in the LPS model.

The target in series [2] is T2, human adenosine A2B receptor (Homo sapiens, UniProt P29275).
T2 construct: expressed in transfected cells; host or cells: CHO cells or yeast cells
T2 sequence (P29275 1-332): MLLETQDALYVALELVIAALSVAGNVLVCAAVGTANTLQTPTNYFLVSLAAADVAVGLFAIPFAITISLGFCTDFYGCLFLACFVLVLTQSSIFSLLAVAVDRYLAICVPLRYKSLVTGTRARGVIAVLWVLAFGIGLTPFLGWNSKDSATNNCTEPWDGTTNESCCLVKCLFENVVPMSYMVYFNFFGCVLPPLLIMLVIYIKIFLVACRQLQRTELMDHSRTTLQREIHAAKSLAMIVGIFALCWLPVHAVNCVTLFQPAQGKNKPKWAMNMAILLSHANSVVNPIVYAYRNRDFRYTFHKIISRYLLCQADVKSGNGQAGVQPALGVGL
As to the kind of experiment: Agonist activity against adenosine A2B receptor (CHO or yeast assay). The class given is cell-based. Particulars: A2A over A2B. The protocol: (§1) 1) In Vitro: Agonist Activity Against Adenosine A1, A2A, A2B and A3 Receptors.
(§2) The agonist potency and selectivity of compounds against human adenosine receptors is determined using Chinese hamster ovary (CHO) cells or yeast cells transfected with the gene for the relevant receptor.
(§3) Two methods may be used in the CHO cells. (i) For the SPAP assay, cells are also transfected with cyclic AMP (cAMP) response elements promoting the gene for secreted placental alkaline phosphatase (SPAP). Changes in cAMP are measured as changes in the levels of SPAP. (ii) The DiscoveRx assay is an enzyme complementation assay that involves two fragments of β-galactosidase, enzyme acceptor (EA) and enzyme donor (ED). […] For both methods the effect of test compounds is determined by their effects on basal levels of cAMP (A2A and A2B) or on forskolin enhanced cAMP (A1 and A3).
(§4) For the yeast assay, receptor stimulation causes activation of a reporter gene, namely FUS1-HIS3, resulting in histidine production which is essential for cell growth. […] This response is measured from the production of the exoglucanase, an enzyme secreted constitutively by yeast cells.
(§5) In all of the in vitro assays the activity of test compounds is expressed as a ratio to that of the non-selective adenosine receptor agonist, N-ethyl carboxamide adenosine (NECA).

Series [3] concerns the target T3, human adenosine A3 receptor (Homo sapiens, UniProt P0DMS8).
T3 construct: expressed in transfected cells; host or cells: CHO cells or yeast cells
T3 sequence (P0DMS8 1-318): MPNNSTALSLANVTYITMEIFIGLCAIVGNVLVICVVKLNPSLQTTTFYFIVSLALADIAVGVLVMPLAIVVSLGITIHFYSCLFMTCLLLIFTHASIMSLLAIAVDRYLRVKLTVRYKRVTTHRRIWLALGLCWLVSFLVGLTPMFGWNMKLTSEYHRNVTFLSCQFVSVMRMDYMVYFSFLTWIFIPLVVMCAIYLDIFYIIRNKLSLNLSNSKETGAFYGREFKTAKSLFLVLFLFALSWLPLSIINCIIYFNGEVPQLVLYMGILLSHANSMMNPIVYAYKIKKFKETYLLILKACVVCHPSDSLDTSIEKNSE
As to the kind of experiment: Agonist activity against adenosine A3 receptor (CHO or yeast assay). Format: cell-based. The conditions noted are these: A2A over A3. How it is done: as §1, §2, §3, §4, §5

In series [4] the target is T4, human adenosine A1 receptor (Homo sapiens, UniProt P30542).
T4 construct: expressed in transfected cells; host or cells: CHO cells or yeast cells
T4 sequence (P30542 1-326): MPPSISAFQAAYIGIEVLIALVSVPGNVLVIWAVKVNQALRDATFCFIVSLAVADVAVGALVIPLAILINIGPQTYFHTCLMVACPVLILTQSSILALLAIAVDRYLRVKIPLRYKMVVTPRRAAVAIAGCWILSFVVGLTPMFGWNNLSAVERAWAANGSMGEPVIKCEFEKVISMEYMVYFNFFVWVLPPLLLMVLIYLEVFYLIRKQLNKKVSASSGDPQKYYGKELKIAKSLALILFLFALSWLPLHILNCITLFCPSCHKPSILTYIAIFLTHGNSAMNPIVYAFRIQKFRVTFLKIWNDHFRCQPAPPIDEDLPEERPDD
Briefly: Agonist activity against adenosine A1 receptor (CHO or yeast assay). The class given is cell-based. The conditions noted are these: A2A over A1. How it is done:
as §1, §2, §3, §4, §5

T1 sequence (P02768 25-609): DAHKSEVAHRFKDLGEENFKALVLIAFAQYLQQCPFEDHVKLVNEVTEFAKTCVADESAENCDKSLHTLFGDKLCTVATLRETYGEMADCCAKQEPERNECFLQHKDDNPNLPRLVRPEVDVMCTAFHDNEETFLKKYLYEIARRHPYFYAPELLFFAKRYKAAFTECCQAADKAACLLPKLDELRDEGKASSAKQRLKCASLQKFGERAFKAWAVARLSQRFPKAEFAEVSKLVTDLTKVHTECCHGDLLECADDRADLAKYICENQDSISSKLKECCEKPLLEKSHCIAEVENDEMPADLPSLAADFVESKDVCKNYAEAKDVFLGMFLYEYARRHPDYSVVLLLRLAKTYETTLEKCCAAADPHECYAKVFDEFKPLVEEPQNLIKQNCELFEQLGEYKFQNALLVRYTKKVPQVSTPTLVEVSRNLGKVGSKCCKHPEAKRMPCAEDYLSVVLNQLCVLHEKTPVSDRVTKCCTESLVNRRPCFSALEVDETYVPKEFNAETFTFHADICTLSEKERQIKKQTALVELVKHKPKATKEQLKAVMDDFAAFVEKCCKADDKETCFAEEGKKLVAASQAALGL
Description for plasma protein: Calibration of the protein columns: The column performance check and the calibration have been performed before the analysis of every 96 well plate. The compounds used for the column calibrations were dissolved separately in 0.5 mg/ml concentration in 50% 2-propanol and 50% pH 7.4 ammonium acetate solution mixtures.
The literature % PPB (bound in plasma) values were converted to the linear free energy related logk values (logarithm of apparent affinity constant) using the following equation.

Take `CCCC1O[C@@H]2C[C@H]3[C@@H]4CCC5=CC(=O)C=C[C@]5(C)[C@H]4[C@@H](O)C[C@]3(C)[C@]2(C(=O)CO)O1` (stereo partly drawn) [Budesonide]: the “lit logK” value with plasma protein was 0.83. Besides, on HSA, the logK measured came to 0.70 and the “% HSA measured” value was 84.2%.
Consider `O=C(O)Cc1ccccc1Nc1c(Cl)cccc1Cl` [Diclofenac], for which, in the series on plasma protein, the “lit logK” value was 1.92.
`O=C1CN=C(c2ccccn2)c2cc(Br)ccc2N1` [Bromazepam]: in the series with plasma protein, the “lit logK” value is listed as 0.17. Also, on HSA, the logK measured was 0.38 and the “% HSA measured” value is 71.2%.
For `CNC(=C[N+](=O)[O-])NCCSCc1csc(CN(C)C)n1` [Nizatidine] the same measures were −0.28, −0.35 and 31.1%.
`COC(=O)C1=C(C)NC(C)=C(C(=O)OCCN(C)Cc2ccccc2)C1c1cccc([N+](=O)[O-])c1` (stereo not drawn) [Nicardipine]: at HSA, the logK measured is given as 1.38 and the “% HSA measured” value is 97.0%.
On to `NC(=O)N1c2ccccc2C=Cc2ccccc21` [Carbamazepine], for which the “lit logK” value in the series on plasma protein came out at 0.46. At HSA, the logK measured turned out to be 0.50 and the “% HSA measured” value was determined as 76.8%.
As to `CCn1nnc([C@H]2O[C@@H](n3cnc4c(N[C@H]5CC[C@H](Nc6nc(NCCc7cn(C)cn7)nc7c6ncn7[C@@H]6O[C@H](c7nnn(CC)n7)[C@@H](O)[C@H]6O)CC5)nc(NCCc5cn(C)cn5)nc43)[C@H](O)[C@@H]2O)n1.O=CO` [Formic acid—(2R,3R,4S,5R,2′R,3′R,4′S,5′R)-2,2′-{trans-1,4-cyclohexanediylbis[imino(2-{[2-(1-methyl-1H-imidazol-4-yl)ethyl]amino}-9H-purine-6,9-diyl)]}bis[5-(2-ethyl-2H-tetrazol-5-yl)tetrahydro-3,4-furandiol] (4:1)], in the series with neutrophil accumulation, the “reduction in neutrophil accumulation” value was “greater than 50%”. In series [1], the “dose giving a 20% increase in blood pressure and heart rate (ED20)” value is given as “about 7 μg/kg”. The “selectivity for A2A than A2B” value in series [2] was “greater than 100 fold”. Moreover, at HSA (immobilised HSA HPLC column, pH 7.4), the “binding to HSA” value is reported as “greater than 90%”. Also, in series [3], the “selectivity for A2A than A3” value is recorded as “greater than 100 fold”. Besides, the “selectivity for A2A than A1” value in series [4] is given as “greater than 100 fold”.
On to `CN1C(C(=O)Nc2ccccn2)=C(O)c2ccccc2S1(=O)=O` [Piroxicam], for which the “lit logK” value in the series with plasma protein was determined as 1.16. Besides, at HSA, the logK measured came out at 1.10 and the “% HSA measured” value is recorded as 93.6%.
